“Also recorded” adds a separate entry of the source.
System: AHR
Assay: AHR activation in mouse intestine in vivo (Cyp1a1 expression by qRT-PCR)
Conditions: for expression of the AHR response gene Cyp1a1 in the small intestine: maternal diet with I3C throughout pregnancy, 25 mg/kg body weight/day
Method: Hits were validated for activation of AHR signaling by oral gavage into neonatal C57/B16 mice (p11), and measuring the expression of the AHR activation reporter Cyp1a1 by qRT-PCR in the intestinal mucosa 24 hours later. The lead compound from these studies is herein labelled “A18”. Additionally, the mice were subjected to hypoxia (5% 02-95% N2) for 10 min in a hypoxia chamber (Billups-Rothenberg) twice daily for 4 days. […] To test the protective effect of breast milk on AHR signaling a NEC, human breast milk (Innovative Research) was supplemented to the formula at the final concentration of 5%. Endotoxemia was induced in neonatal mouse pups (p11) by administering 5 mg/kg lipopolysaccharides (LPS) via intraperitoneal injection, and ileal samples were harvested 6 hours after LPS treatments. […] I3C and A18 were administered to the pregnant mother daily until the offspring were studied further for experimental NEC or endotoxemia as above. […] The mRNA quantification was performed on the Bio-Rad CFX96 Real-Time System (Bio-Rad) using iTaqTM universal SYBR® Green supermix (Bio-Rad) and the primers listed in Table 1. The relative mRNA expression levels were normalized against the expression of the housekeeping gene ribosomal protein lateral stalk subunit P0 (Rplp0). For microRNA isolation, freshly harvested, snap-frozen ileal tissue was subjected to total RNA isolation using the RNeasy plus universal mini kit (Qiagen) and miRNA was quantified using miScript PCR starter kit (Qiagen) following the manufacturer's protocols. The relative miRNA expression levels were normalized against the expression of housekeeping miRNA miR-191.

## OCc1c[nH]c2ccccc12 [I3C, indole-3-carbinol]
Ahr^Δlys mice, NEC model, I3C 25 mg/kg body weight/day for 4 days
  Cyp1a1 expression in the neonatal intestinal epithelium (ileum): induced the expression Cyp1a1; also recorded: moderate increase
Ahr^−/− newborn mice, fed I3C 25 mg/kg/day or A18 300 mg/kg/day
  Cyp1a1 expression in the intestinal epithelium: did not induce Cyp1a1
Il22^−/− mice, NEC model, I3C 25 mg/kg body weight/day for 4 days
  Cyp1a1 expression in the intestinal epithelium: induced the expression of Cyp1a1
Fetus at e17.5
  expression of the AHR response gene Cyp1a1 in the small intestine: induced the expression of the AHR response gene Cyp1a1
p11, I3C administered to the lactating mother
  Cyp1a1 expression in suckling pups: induced Cyp1a1 expression
Pregnant mother
  expression of the AHR response gene Cyp1a1 in the small intestine: induced the expression of the AHR response gene Cyp1a1
wild-type newborn (p11) mice, fed I3C 25 mg/kg/day or A18 300 mg/kg/day
  Cyp1a1 expression in the intestinal epithelium: induced Cyp1a1 expression
Wildtype mice, NEC model, I3C 25 mg/kg body weight/day for 4 days
  Cyp1a1 expression in the neonatal intestinal epithelium (ileum): induced the expression Cyp1a1; also recorded: multifold induction
